Assay results taken from patent US4753953A, “Pyridonecarboxylic acid derivatives and antibacterial pharmaceutical compositions thereof” (priority 1985, dated 1988).
Converted amounts (≈) assume the structure as drawn. Where two headings read alike, the source gives them in different places.

Legend:
[1] = system: Staphylococcus aureus 209 P; test: MIC, in vitro antibacterial activity (standard strains); format: cell-based; conditions: Staphylococcus aureus, 209P; 10^6 cells/ml; Gram +; read-out: MIC
[2] = system: S. aureus Smith; test: as above; format: cell-based, Staphylococcus aureus; conditions: Staphylococcus aureus; 10^6 cells/ml; Gram +; read-out: MIC
[3] = system: S. aureus IID 670 (Terajima); test: as above; format: cell-based, Staphylococcus aureus; conditions: Staphylococcus aureus, IID670; 10^6 cells/ml; Gram +; read-out: MIC
[4] = system: S. pyogenes IID 692; test: as above; format: cell-based, Streptococcus pyogenes; conditions: Streptococcus pyogenes, IID692; 10^6 cells/ml; Gram +; read-out: MIC
[5] = system: S. pneumoniae IID 552; test: as above; format: cell-based; conditions: Streptococcus pneumoniae, IID552; 10^6 cells/ml; Gram +; read-out: MIC
[6] = system: E. coli ATCC 10536; test: as above; format: cell-based, Escherichia coli; conditions: Escherichia coli, ATCC10536; 10^6 cells/ml; Gram -; read-out: MIC
[7] = system: E. coli ML 4707; test: as above; format: cell-based, Escherichia coli; conditions: Escherichia coli, ML4707, 10^6 cells/ml; Gram -; Table 1; read-out: MIC
[8] = system: Proteus vulgaris IFO 3167; test: as above; format: cell-based; conditions: Proteus vulgaris, IFO3167; 10^6 cells/ml; Gram -; read-out: MIC
[9] = system: Klebsiella pneumoniae KY(GN)6445; test: as above; format: cell-based; conditions: Klebsiella pneumoniae; 10^6 cells/ml; Gram -; read-out: MIC
[10] = system: Enterobacter cloacae IID 977; test: as above; format: cell-based; conditions: Enterobacter cloacae, IID977; 10^6 cells/ml; Gram -; read-out: MIC
[11] = system: Shigella sonnei IID 969; test: as above; format: cell-based; conditions: Shigella sonnei, IID969; 10^6 cells/ml; Gram -; read-out: MIC
Procedure: Minimal inhibitory concentrations (MICs) were determined in accordance with the method recommended by Japan Society of Chemotherapy.

[12] = system: Salmonella enteritidis IID 604; test: as above; format: cell-based; conditions: Salmonella enterica; 10^6 cells/ml; Gram -; read-out: MIC
[13] = system: P. aeruginosa IID 1210; test: as above; format: cell-based, Pseudomonas aeruginosa; conditions: Pseudomonas aeruginosa, IID1210; 10^6 cells/ml; Gram -; read-out: MIC
[14] = system: P. cepacia GIFU 518; test: as above; format: cell-based; conditions: Burkholderia cepacia, GIFU518
[15] = system: P. maltophilia GIFU 2491; test: as above; format: cell-based; conditions: Stenotrophomonas maltophilia, GIFU2491; 10^6 cells/ml; Gram -; read-out: MIC
[16] = system: Yersinia enterocolitica IID 981; test: as above; format: cell-based; conditions: Yersinia enterocolitica, IID981; 10^6 cells/ml; Gram -; read-out: MIC
[17] = system: Acinetobacter anitratus IID 876; test: as above; format: cell-based; conditions: Acinetobacter calcoaceticus, IID876; 10^6 cells/ml; Gram -; read-out: MIC
[18] = system: Alcaligenes faecalis 0114002; test: as above; format: cell-based; conditions: Alcaligenes faecalis, 0114002; 10^6 cells/ml; Gram -; read-out: MIC
[19] = system: Bacteroides fragilis GM 7000; test: as above; format: cell-based; conditions: Bacteroides fragilis, GM7000; 10^6 cells/ml; Gram -; read-out: MIC
[20] = system: B. fragilis 0558; test: as above; format: cell-based, Bacteroides fragilis; conditions: Bacteroides fragilis, 0558; 10^6 cells/ml; Gram -; read-out: MIC
[21] = system: B. fragilis 25285; test: as above; format: cell-based, Bacteroides fragilis; conditions: Bacteroides fragilis, 25285; 10^6 cells/ml; Gram -; read-out: MIC
[22] = system: B. distasonis 8503; test: as above; format: cell-based; conditions: Parabacteroides distasonis, 8503; 10^6 cells/ml; Gram -; read-out: MIC
[23] = system: B. thetaiotaomicron (0661); test: as above; format: cell-based; conditions: Bacteroides thetaiotaomicron; 10^6 cells/ml; Gram -; read-out: MIC
[24] = system: B. vulgatus KYA 29327; test: as above; format: cell-based; conditions: Phocaeicola vulgatus, KYA29327; 10^6 cells/ml; Gram -; read-out: MIC
[25] = system: Fusobacterium mortiferum 4249; test: as above; format: cell-based; conditions: Fusobacterium mortiferum, 4249; 10^6 cells/ml; Gram -; read-out: MIC
[26] = system: F. necrophorum S-45; test: as above; format: cell-based; conditions: Fusobacterium necrophorum, S45; 10^6 cells/ml; Gram -; read-out: MIC
[27] = system: Eubacterium lentum GAI 5242; test: as above; format: cell-based; conditions: Eggerthella lenta, GAI5242; 10^6 cells/ml; Gram +; read-out: MIC
[28] = system: Peptococcus magnus KY 017; test: as above; format: cell-based; conditions: Finegoldia magna, KY017; 10^6 cells/ml; Gram +; read-out: MIC
[29] = system: C. perfringens KYA 13123; test: microbe, parasite or virus in culture; format: cell-based; conditions: Clostridium perfringens, KYA13123
[30] = system: C. ramosum; test: MIC, in vitro antibacterial activity (standard strains); format: cell-based; conditions: Thomasclavelia ramosa; 10^6 cells/ml; Gram +; read-out: MIC
[31] = system: Pst. micros UPI 5464-1; test: as above; format: cell-based; conditions: Parvimonas micra, UPI54641; 10^6 cells/ml; Gram +; read-out: MIC
[32] = system: Veillonella parvula KYA 10790; test: as above; format: cell-based; conditions: Veillonella parvula, KYA10790; 10^6 cells/ml; Gram -; read-out: MIC

Row | Structure (SMILES) | MIC [1] [µg/mL] | MIC [2] [µg/mL] | MIC [3] [µg/mL] | MIC [4] [µg/mL] | MIC [5] [µg/mL] | MIC [6] [µg/mL] | MIC [7] [µg/mL] | MIC [8] [µg/mL] | MIC [9] [µg/mL] | MIC [10] [µg/mL] | MIC [11] [µg/mL] | MIC [12] [µg/mL] | MIC [13] [µg/mL] | MIC [15] [µg/mL] | MIC [16] [µg/mL] | MIC [17] [µg/mL] | MIC [18] [µg/mL] | MIC [19] [µg/mL] | MIC [20] [µg/mL] | MIC [21] [µg/mL] | other results
1 | CNCC1CN(c2c(F)cc3c(=O)c(C(=O)O)cn(C4CC4)c3c2Cl)CC1C (centres unmarked) [Example 12, 8-Chloro-1-cyclopropyl-6-fluoro-1,4-dihydro-7-(3-methylaminomethyl-4-methyl-1-pyrrolidinyl)-4-oxo-3-quinolinecarboxylic acid] | 0.05 (≈ 0.123 µM) | 0.05 (≈ 0.123 µM) | 0.0125 (≈ 0.0306 µM) | 0.05 (≈ 0.123 µM) | 0.05 (≈ 0.123 µM) | 0.05 (≈ 0.123 µM) | 0.025 (≈ 0.0613 µM) | 0.05 (≈ 0.123 µM) | 0.05 (≈ 0.123 µM) | 0.2 (≈ 0.49 µM) | 0.025 (≈ 0.0613 µM) | 0.1 (≈ 0.245 µM) | 1.56 (≈ 3.82 µM) | 0.2 (≈ 0.49 µM) | 0.1 (≈ 0.245 µM) | 0.2 (≈ 0.49 µM) | 0.39 (≈ 0.956 µM) | 0.2 (≈ 0.49 µM) | 0.1 (≈ 0.245 µM) | 0.1 (≈ 0.245 µM) | MIC ([14]; 10^6 cells/ml, Gram -, read-out: MIC): 0.78 µg/mL (≈ 1.91 µM); MIC [22]: 0.39 µg/mL (≈ 0.956 µM); MIC [23]: 0.39 µg/mL (≈ 0.956 µM); MIC [24]: 0.2 µg/mL (≈ 0.49 µM); MIC [25]: 0.2 µg/mL (≈ 0.49 µM); MIC [26]: 0.2 µg/mL (≈ 0.49 µM); MIC [27]: 0.2 µg/mL (≈ 0.49 µM); MIC [28]: 0.05 µg/mL (≈ 0.123 µM); MIC [29]: 0.1 µg/mL (≈ 0.245 µM); MIC [30]: 0.39 µg/mL (≈ 0.956 µM); MIC [31]: 0.39 µg/mL (≈ 0.956 µM); MIC [32]: 0.39 µg/mL (≈ 0.956 µM)
2 | CNCC1CN(c2c(F)cc3c(=O)c(C(=O)O)cn(C4CC4)c3c2F)CC1C (centres unmarked) [Example 13, 1-Cyclopropyl-6,8-difluoro-1,4-dihydro-7-(3-methylaminomethyl-4-methyl-1-pyrrolidinyl)-4-oxo-3-quinolinecarboxylic acid] | 0.05 (≈ 0.128 µM) | 0.05 (≈ 0.128 µM) | 0.05 (≈ 0.128 µM) | 0.2 (≈ 0.511 µM) | 0.1 (≈ 0.255 µM) | 0.05 (≈ 0.128 µM) | 0.05 (≈ 0.128 µM) | 0.05 (≈ 0.128 µM) | 0.05 (≈ 0.128 µM) | 0.2 (≈ 0.511 µM) | 0.05 (≈ 0.128 µM) | 0.1 (≈ 0.255 µM) | 1.56 (≈ 3.99 µM) | 0.39 (≈ 0.996 µM) | 0.1 (≈ 0.255 µM) | 0.1 (≈ 0.255 µM) | 0.78 (≈ 1.99 µM) | 0.78 (≈ 1.99 µM) | 0.78 (≈ 1.99 µM) | 0.78 (≈ 1.99 µM) | MIC [14]: 0.78 µg/mL (≈ 1.99 µM); MIC [22]: 3.13 µg/mL (≈ 8 µM); MIC [23]: 3.13 µg/mL (≈ 8 µM); MIC [24]: 1.56 µg/mL (≈ 3.99 µM); MIC [25]: 0.39 µg/mL (≈ 0.996 µM); MIC [26]: 0.39 µg/mL (≈ 0.996 µM); MIC [27]: 0.78 µg/mL (≈ 1.99 µM); MIC [28]: ≤ 0.05 µg/mL; MIC [29]: 0.2 µg/mL (≈ 0.511 µM); MIC [30]: 0.78 µg/mL (≈ 1.99 µM); MIC [31]: 0.78 µg/mL (≈ 1.99 µM); MIC [32]: 0.78 µg/mL (≈ 1.99 µM)
3 | CCNCC1CN(c2c(F)cc3c(=O)c(C(=O)O)cn(C4CC4)c3c2Cl)CC1C (centres unmarked) [Example 14, 8-Chloro-1-cyclopropyl-7-(3-ethylaminomethyl-4-methyl-1-pyrrolidinyl)-6-fluoro-1,4-dihydro-4-oxo-3-quinolinecarboxylic acid] | 0.0125 (≈ 0.0296 µM) | 0.0125 (≈ 0.0296 µM) | 0.0125 (≈ 0.0296 µM) | 0.05 (≈ 0.119 µM) | 0.05 (≈ 0.119 µM) | 0.025 (≈ 0.0593 µM) | 0.05 (≈ 0.119 µM) | 0.05 (≈ 0.119 µM) | 0.05 (≈ 0.119 µM) | 0.2 (≈ 0.474 µM) | 0.025 (≈ 0.0593 µM) | 0.2 (≈ 0.474 µM) | 3.13 (≈ 7.42 µM) | 0.39 (≈ 0.924 µM) | 0.2 (≈ 0.474 µM) | 0.1 (≈ 0.237 µM) | 0.78 (≈ 1.85 µM) | 0.1 (≈ 0.237 µM) | ≤ 0.05 | 0.05 (≈ 0.119 µM) | MIC [14]: 0.78 µg/mL (≈ 1.85 µM); MIC [22]: 0.39 µg/mL (≈ 0.924 µM); MIC [23]: 0.2 µg/mL (≈ 0.474 µM); MIC [24]: ≤ 0.05 µg/mL; MIC [25]: 0.2 µg/mL (≈ 0.474 µM); MIC [26]: 0.1 µg/mL (≈ 0.237 µM); MIC [27]: 0.2 µg/mL (≈ 0.474 µM); MIC [28]: ≤ 0.05 µg/mL; MIC [29]: ≤ 0.05 µg/mL; MIC [30]: 0.2 µg/mL (≈ 0.474 µM); MIC [31]: 0.39 µg/mL (≈ 0.924 µM); MIC [32]: 0.39 µg/mL (≈ 0.924 µM)
4 | CCNCC1CN(c2c(F)cc3c(=O)c(C(=O)O)cn(C4CC4)c3c2F)CC1C (centres unmarked) [Example 15, 1-Cyclopropyl-7-(3-ethylaminomethyl-4-methyl-1-pyrrolidinyl)-6,8-difluoro-1,4-dihydro-4-oxo-3-quinolinecarboxylic acid] | 0.05 (≈ 0.123 µM) | 0.05 (≈ 0.123 µM) | 0.05 (≈ 0.123 µM) | 0.1 (≈ 0.247 µM) | 0.1 (≈ 0.247 µM) | 0.05 (≈ 0.123 µM) | 0.05 (≈ 0.123 µM) | 0.1 (≈ 0.247 µM) | 0.05 (≈ 0.123 µM) | 0.2 (≈ 0.493 µM) | 0.05 (≈ 0.123 µM) | 0.2 (≈ 0.493 µM) | 3.13 (≈ 7.72 µM) | 0.39 (≈ 0.962 µM) | 0.2 (≈ 0.493 µM) | 0.1 (≈ 0.247 µM) | 0.78 (≈ 1.92 µM) | 0.78 (≈ 1.92 µM) | 0.39 (≈ 0.962 µM) | 0.39 (≈ 0.962 µM) | MIC [14]: 0.78 µg/mL (≈ 1.92 µM); MIC [22]: 3.13 µg/mL (≈ 7.72 µM); MIC [23]: 1.56 µg/mL (≈ 3.85 µM); MIC [24]: 0.78 µg/mL (≈ 1.92 µM); MIC [25]: 0.39 µg/mL (≈ 0.962 µM); MIC [26]: 0.39 µg/mL (≈ 0.962 µM); MIC [27]: 0.39 µg/mL (≈ 0.962 µM); MIC [28]: ≤ 0.05 µg/mL; MIC [29]: 0.1 µg/mL (≈ 0.247 µM); MIC [30]: 0.78 µg/mL (≈ 1.92 µM); MIC [31]: 0.78 µg/mL (≈ 1.92 µM); MIC [32]: 0.78 µg/mL (≈ 1.92 µM)
